One compound from patent EP2114888B1, “TRICYCLIC COMPOUNDS AND THEIR USE AS GLUCOCORTICOID RECEPTOR MODULATORS” (priority 2007, dated 2008) can be followed below.

Data set [1] is described as follows: Oral dosing in portal vein-cannulated rats, portal vein plasma. Particulars: oral dosing 30 and 200 mg/kg, over a four-hour time period. The data set is classed as in vivo.
The nature of data set [2]: Oral absorption profile, time to Cmax in dogs. Particulars: dog, in vivo.
The nature of data set [3]: Solubility and intrinsic dissolution. The data set is classed as physicochemical.
The target of data set [4] is full-length glucocorticoid (GR) protein. Description: Glucocorticoid receptor fluorescence polarization ligand binding (GRFP) assay. The following applies: additional result (footnote a). For orientation: Polarisation of emitted light reports the rotation of a fluorescent probe.
Source text: The glucocorticoid receptor fluorescence polarization ligand binding (GRFP) assay is used to evaluate direct binding of testing compounds to full-length glucocorticoid (GR) protein. Reagents for this assay are purchased from Invitrogen in a test kit. A fluorescent labeled GR ligand is used as a fluorescent tracer and test compounds compete with the fluorescent tracer for GR binding. The change in polarization value in the presence of test compounds is due to binding of test compounds to GR and is used to determine IC50 and relative binding affinity of test compounds for GR.
The subject of the next data set is IL-6. Description: IL-1β-stimulated IL-6 production in A549 lung epithelial cells. The format is cell-based, Human. As for the experimental part: Human A549 lung epithelial cells (American Type Culture Collection, Rockville, MD) were cultured in Kaighn's F-12K medium with penicillin-streptomycin (10 U/mL) and 10% heat-inactivated fetal bovine serum (all from Invitrogen, Grand Island, NY). A549 cells were plated at a density of 30,000 cells/well in 96-well plates and incubated overnight at 37°C and with 5% CO2. The cells were serum-starved by replacing the growth medium with serum-free Kaighn's F-12K medium with penicillin-streptomycin (10 U/mL) and, again, incubating overnight at 37°C and with 5% CO2. On the third day, the medium was replaced with fresh serum-free medium and the cells were incubated with or without compound (vehicle was DMSO at 0.1 % maximum concentration) for approximately 1 hour and then stimulated with 1 ng/mL recombinant human IL-1β (R&D Systems, Minneapolis, MN) for 20 hours at 37°C and with 5% CO2. Cell supernatants were collected for determination of IL-6 levels using MSD (Meso Scale Discovery, Gaithersburg, MD) 96-well Single Spot plates as per the manufacturer's instructions. Plates were read with an MSD Sector Imager 6000. […] Percent inhibition for each compound concentration, relative to these controls, was calculated using Excel (Microsoft, Redmond, WA). IC50 values were generated using GraFit 5.0 data analysis software (Erithacus Software Ltd., Surrey, UK).

Another data set is described as follows: in vivo. Particulars: rat, po.
Data set [5] in a line: Oral absorption profile in rats.
Data set [6] in a line: Caco-2 cell monolayer A→B permeability assay. Particulars: human. A general note: Passage across Caco-2 layers is used to estimate intestinal permeability.
Source text: The Caco-2 cell monolayer is an in vitro tissue culture model of the intestinal epithelium. These cells are of human colonic origin and become polarized, fully differentiated enterocytes in 2-3 weeks. Once differentiated, these cells have tight junctions and express various biochemical processes such as active efflux transporters including P-glycoprotein (P-gp). With this model, it is possible to determine the apparent permeability (Papp) of a compound across the polarized Caco-2 cell monolayer.
An A→B Assay is performed with Caco-2 cell monolayers to determine compound Papp from A chamber to B chamber. This Papp is representative of luminal (gut) to serosal (blood) compound transport across intestinal epithelium that may be seen during intestinal absorption.

What is called Tmax is the time from dosing to the highest level. In general, IC50 refers to the point on the concentration scale where inhibition reaches its midpoint. Low readings indicate greater potency, high ones weaker potency. Broadly, the inhibition is the relative decrease from the control value, in per cent. A high value points to a strong effect. What is called AUC is concentration integrated over time. Higher therefore signals more exposure. In general, Cmax refers to the maximum level reached in the sampled fluid or tissue. The term Papp A→B denotes the apparent permeability from the apical to the basolateral side of a cell layer. On to `Cc1ncccc1NC(=O)c1ccc2c(c1)CC[C@@H]1C[C@@](OP(=O)(O)O)(C(F)(F)F)CC[C@@]21Cc1ccccc1` [Example 2, (2R,4αS,10αR)-4α-benzyl-7-((2-methylpyridin-3-yl)carbamoyl)-2-(trifluoromethyl)-1,2,3,4,4α,9,10,10α-octahydrophenanthren-2-yl dihydrogen phosphate], for which the “detection in portal vein plasma samples” value in data set [1] is reported as “detection of Example 1, but not Example 2”. Moreover, the Tmax in [2] is 48 min. The “solubility and intrinsic dissolution” value in [3] is “enhanced solubility and intrinsic dissolution”. The IC50 came to 0.042 µM in data set [4] and 0.017 µM in the data set with IL-6 (Homo sapiens, A549 cells, additional result (footnote a)). Moreover, the “IL-6 % Inhibition” value in the data set with IL-6 (A549 cells, additional result (footnote a)) came out at 80%. The inhibition in the data set with IL-6 (Homo sapiens, A549) was found to be 60.2%. Also, in the data set on Caco-2 cell monolayer, the “Example 1 in apical and basolateral compartments” value was “significant elevation of Example 1 in both the apical and basolateral compartments”. Also, the AUC in the data set “in vivo” worked out at 1.61 µg·h/mL. In addition, in data set [5], the “bioavailability F” value came to 59%. Besides, in [5] (oral), the Cmax was determined as 0.59 µg/mL. In addition, in data set [6], the Papp A→B worked out at 11.5 nm/s.
